We go through eleven compounds from US8404720B2, “Aryl sulfonamide amine compounds and their use as 5-HT6 ligands” (Suven Life Sciences Limited, priority 2008, dated 2013).

SMILES strings stand for the structures.

Series [1] deals with Human 5-HT6 Receptor (Homo sapiens, UniProt P50406). In words: Binding Assay for Human 5-HT6 Receptor ([3H]LSD radioligand). As to conditions: [3H]LSD 1.5 nM, human recombinant receptor in HEK293 cells; for % Inhibition at 10 nM: 10 nM test compound; for % Inhibition at 100 nM: 100 nM test compound; for % Inhibition at 1000 nM: 1000 nM test compound.
Chain of Human 5-HT6 Receptor (P50406 whole entry): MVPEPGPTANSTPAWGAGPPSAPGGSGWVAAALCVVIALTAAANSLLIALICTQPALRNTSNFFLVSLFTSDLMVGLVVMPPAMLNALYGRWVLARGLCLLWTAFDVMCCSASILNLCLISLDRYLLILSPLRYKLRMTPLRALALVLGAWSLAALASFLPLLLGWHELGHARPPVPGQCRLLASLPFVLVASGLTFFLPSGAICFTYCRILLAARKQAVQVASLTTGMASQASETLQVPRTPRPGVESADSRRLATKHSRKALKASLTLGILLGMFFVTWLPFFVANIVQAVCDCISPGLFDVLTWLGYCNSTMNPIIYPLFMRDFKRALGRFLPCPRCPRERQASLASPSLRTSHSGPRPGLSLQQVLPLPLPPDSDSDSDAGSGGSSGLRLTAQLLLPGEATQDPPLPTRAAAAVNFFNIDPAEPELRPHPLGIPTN
Experimental: Receptor source: Human recombinant expressed in HEK293 cells
Radioligand: [^3H]LSD (60-80 Ci/mmol)
Final ligand concentration— [1.5 nM]
Non-specific determinant: Methiothepin mesylate— [0.1 μM]
Reference compound: Methiothepin mesylate
Positive control: Methiothepin mesylate
Reactions were carried out in 50 μM TRIS-HCl (pH 7.4) containing 10 μM MgCl2, 0.5 mM EDTA for 60 minutes at 37° C. The reaction was terminated by rapid vacuum filtration onto glass fiber filters. Radioactivity trapped onto the filters was determined and compared to control values in order to ascertain any interactions of test compound(s) with the cloned serotonin 5-HT6 binding site.
Series [2] deals with rats. The series is described as follows: Water Maze (scopolamine induced reversal). The format is in vivo. As to conditions: p.o. As to the method:
The water maze apparatus consisted of a circular pool (1.8 m diameter, 0.6 m high) constructed in black Perspex (TSE systems, Germany) filled with water (24±2° C.) and positioned underneath a wide-angled video camera to track animal. The 10 cm^2 perspex platform, lying 1 cm below the water surface, was placed in the centre of one of the four imaginary quadrants, which remained constant for all rats. The black Perspex used in the construction of the maze and platform offered no intramaze cues to guide escape behavior. By contrast, the training room offered several strong extramaze visual cues to aid the formation of the spatial map necessary for escape learning. An automated tracking system, [Videomot 2 (5.51), TSE systems, Germany] was employed. This program analyzes video images acquired via a digital camera and an image acquisition boards that determined path length, swim speed and the number of entries and duration of swim time spent in each quadrant of the water maze.

Series [3] relates to Male Wister rats. In words: Object Recognition Task Model. As to conditions: rat, 3 mg/kg p.o.; for Exploration time mean ± S.E.M (sec), first value column / Exploration time mean ± S.E.M (sec), second value column: choice trial T2; for Exploration time mean ± S.E.M (sec), first value column: first of two columns (sub-head not printed, presumably familiar object); for Exploration time mean ± S.E.M (sec), second value column: second of two columns (sub-head not printed, presumably novel object); for Inference: object recognition task. It is filed as in vivo. As for the experimental part: The cognition-enhancing properties of compounds of this invention were estimated using a model of animal cognition: the object recognition task model.
Male Wister rats (230-280 grams) obtained from N. I. N. (National Institute of Nutrition, Hyderabad, India) was used as experimental animals. Four animals were housed in each cage. Animals were kept on 20% food deprivation before one day and given water ad libitum throughout the experiment and maintained on a 12 hours light/dark cycle. Also the rats were habituated to individual arenas for 1 hour in the absence of any objects.
One group of 12 rats received vehicle (1 mL/Kg) orally and another set of animals received compound of the formula (I) either orally or i.p., before one hour of the familiar (T1) and choice trial (T2).
The experiment was carried out in a 50×50×50 cm open field made up of acrylic. In the familiarization phase, (T1), the rats were placed individually in the open field for 3 minutes, in which two identical objects (plastic bottles, 12.5 cm height×5.5 cm diameter) covered in yellow masking tape alone (a1 and a2) were positioned in two adjacent corners, 10 cm. from the walls. After 24 hours of the (T1) trial for long-term memory test, the same rats were placed in the same arena as they were placed in T1 trial. Choice phase (T2) rats were allowed to explore the open field for 3 minutes in presence of one familiar object (a3) and one novel object (b) (Amber color glass bottle, 12 cm high and 5 cm in diameter). Familiar objects presented similar textures, colors and sizes. During the T1 and T2 trial, explorations of each object (defined as sniffing, licking, chewing or having moving vibrissae whilst directing the nose towards the object at a distance of less than 1 cm) were recorded separately by stopwatch. Sitting on an object was not regarded as exploratory activity, however, it was rarely observed.
T1 is the total time spent exploring the familiar objects (a1+a2).
T2 is the total time spent exploring the familiar object and novel object (a3+b).
The object recognition test was performed as described by Ennaceur, A., Delacour, J., A new one-trial test for neurobiological studies of memory in rats—Behavioural data, Behay. Brain Res., 1988, 31, 47-59.

The nature of series [4]: Rodent Pharmacokinetic Study. It is filed as in vivo, Male wistar rats. As to conditions: Wistar/Male rat; for AUCt / T1/2 / Tmax / Cmax: 10 mg/kg, 50% PEG-400 in water for injection; for Cmax: plasma; for Bioavailability: oral 10 mg/kg versus intravenous. As for the experimental part: Male wistar rats (230-280 grams) obtained from NIN (National Institute of Nutrition, Hyderabad, India) were used as an experimental animal.
Three to five animals were housed in each cage. Animals were kept fasted over night and maintained on a 12 hours light/dark cycle. […]
At each time point blood was collected by jugular vein. Plasma was stored frozen at −20° C. until analysis. The concentrations of the NCE compound in plasma were determined using LC-MS/MS method.
Schedule time points: Pre dose. 0.25, 0.5, 1, 1.5, 2, 3, 4, 6, 8, 10, 12 and 24 hours after dosing (n=3). The NCE compounds were quantified in plasma by validated LC-MS/MS method using solid phase extraction technique. NCE compounds were quantified in the calibration range of 2-2000 ng/mL in plasma. Study samples were analyzed using calibration samples in the batch and quality control samples spread across the batch.
Pharmacokinetic parameters Cmax, Tmax, AUCt, AUCinf, half life, volume of distribution, clearance, mean residence time and thereby oral bioavailability were calculated by non-compartmental model using software WinNonlin version 5.1.

The nature of series [5]: Rodent Brain Penetration Study. The format is in vivo, Male Wister rats. As to conditions: Wistar/Male rat, Intravenous infusion, 1 mg/kg, brain/plasma. As to the method:
Male Wister rats (230-280 grams) obtained from NIN (National Institute of Nutrition, Hyderabad, India) was used as an experimental animal. Three animals were housed in each cage. Animals were given water and food ad libitum throughout the experiment, and maintained on a 12 hours light/dark cycle.
Brain penetration was determined at steady state in rat. One day prior to dosing day, male wistar rats (225-250 grams) were anesthetized with halothane for surgical placement of jugular and femoral vein catheters. After surgery, the rats were housed in individual rat infusion cage connected with infusion components (Instech Solomon; Plymouth Meeting, Pa. USA) and allowed free access to food and water
NCE compound was dissolved in water and administered at a constant infusion rate (5 mL/kg/hr) over 6-10 hours at a target dose rate of 1.0 mg free base/kg/h. Blood samples were removed during the latter part of the infusion to confirm steady-state blood concentrations, brain and blood was collected and estimated. Animals will be sacrificed to collect the plasma and brain tissue and was homogenized. Plasma and Brain was stored frozen at −20° C. until analysis. The concentrations of the NCE compound in plasma and Brain were determined using LC-MS/MS method.
The NCE compounds were quantified in plasma and brain homogenate by validated LC-MS/MS method using solid phase extraction technique. NCE compounds were quantified in the calibration range of 1-500 ng/mL in plasma and brain homogenate. Study samples were analyzed using calibration samples in the batch and quality control samples spread across the batch. Extents of brain-blood ratio were calculated (Cb/Cp).

As for `CN1CCC(Nc2cccc(NS(=O)(=O)c3ccccc3Br)c2)CC1` [Example 11, 2-Bromo-N-[3-(1-methylpiperidin-4-ylamino)phenyl] benzenesulfonamide], in series [1], the “% Inhibition at 10 nM” value worked out at 8.56%, the “% Inhibition at 100 nM” value is 64.11% and the “% Inhibition at 1000 nM” value is recorded as 94.73%.

As to `CN1CCC(Nc2cc(NS(=O)(=O)c3ccc(F)cc3)ccc2Cl)CC1` [Example 2, 4-Fluoro-N-[4-Chloro-3-(1-methylpiperidin-4-ylamino)phenyl] benzenesulfonamide], in series [1], the “% Inhibition at 100 nM” value was determined as 69.45% and the “% Inhibition at 1000 nM” value is given as 96.73%.

Consider `Cc1ccc(S(=O)(=O)Nc2ccc(Cl)c(NC3CCN(C)CC3)c2)cc1` [Example 3, 4-Methyl-N-[4-Chloro-3-(1-methylpiperidin-4-ylamino)phenyl] benzenesulfonamide], for which, in series [1], the “% Inhibition at 100 nM” value is on record as 78.66% and the “% Inhibition at 1000 nM” value is recorded as 98.42%.

Regarding `COc1ccc(NS(=O)(=O)c2ccccc2Br)cc1NC1CCN(C)CC1` [Example 8, 2-Bromo-N-[4-Methoxy-3-(1-methylpiperidin-4-ylamino)phenyl] benzenesulfonamide], in series [1], the “% Inhibition at 10 nM” value is listed as 71.95%, the “% Inhibition at 100 nM” value is recorded as 99.38% and the “% Inhibition at 1000 nM” value is 100.63%. For the same compound, the “Scopolamine Induced Reversal” value in series [2] is given as “≦3 mg/kg, p.o”. Also, in series [3], the “Exploration time mean ± S.E.M (sec), first value column” value came to 6.72 ± 1.95 s; the “Exploration time mean ± S.E.M (sec), second value column” value amounted to 9.58 ± 2.26 s; the Inference entry is on record as “Active”. In addition, in series [4] (Intravenous), the AUCt amounted to 9919 ± 701 ng·h/mL, the T1/2 was found to be 2.18 ± 0.54 h, the Tmax is 4.8 ± 0 min and the peak concentration (Cmax) is given as 2645 ± 154 ng/mL. In series [4] (Oral), the AUCt is 6222 ± 1025 ng·h/mL, the T1/2 stood at 5.40 ± 2.56 h, the Tmax came to 100 ± 69 min and the highest concentration (Cmax) was determined as 964 ± 110 ng/mL. The Bioavailability in series [4] stood at 63%. Moreover, the “Steady State Brain Penetration (Cb/Cp)” value in series [5] is 0.04 ± 0.01.

`Cc1ccc(NS(=O)(=O)c2ccc(F)cc2)cc1NC1CCN(C)CC1` [Example 17, 4-Fluoro-N-[4-Methyl-3-(1-Methylpiperidin-4-ylamino)phenyl] benzenesulfonamide]: in series [1], the “% Inhibition at 100 nM” value worked out at 64.27% and the “% Inhibition at 1000 nM” value is on record as 93.00%.

For the compound `Cc1ccc(S(=O)(=O)Nc2ccc(C)c(NC3CCN(C)CC3)c2)cc1` [Example 18, 4-Methyl-N-[4-Methyl-3-(1-Methylpiperidin-4-ylamino)phenyl] benzenesulfonamide], in series [1], the “% Inhibition at 100 nM” value was 63.42% and the “% Inhibition at 1000 nM” value is given as 92.37%.

In the case of `CN1CCC(Nc2cccc(NS(=O)(=O)c3ccc(F)cc3)c2)CC1` [Example 13, 4-Fluoro-N-[3-(1-methylpiperidin-4-ylamino)phenyl] benzenesulfonamide], in series [1], the “% Inhibition at 100 nM” value stood at 34.95% and the “% Inhibition at 1000 nM” value came to 71.2%.

As to `COc1ccc(NS(=O)(=O)c2ccc(C)cc2)cc1NC1CCN(C)CC1` [Example 10, 4-Methyl-N-[4-Methoxy-3-(1-methylpiperidin-4-ylamino)phenyl] benzenesulfonamide], in series [1], the “% Inhibition at 100 nM” value was found to be 88.26% and the “% Inhibition at 1000 nM” value was 99.2%.

`CN1CCC(Nc2cc(NS(=O)(=O)c3ccccc3Br)ccc2Cl)CC1` [Example 5, 2-Bromo-N-[4-Chloro-3-(1-methylpiperidin-4-ylamino)phenyl] benzenesulfonamide]: in series [1], the “% Inhibition at 100 nM” value is on record as 93.8% and the “% Inhibition at 1000 nM” value is 101.6%.

Take `Cc1ccc(S(=O)(=O)Nc2cccc(NC3CCN(C)CC3)c2)cc1` [Example 14, 4-Methyl-N-[3-(1-methylpiperidin-4-ylamino)phenyl] benzenesulfonamide]: in series [1], the “% Inhibition at 100 nM” value was found to be 45.25% and the “% Inhibition at 1000 nM” value was 80.78%.

As to `COc1ccc(NS(=O)(=O)c2ccc(F)cc2)cc1NC1CCN(C)CC1` [Example 6, 4-Fluoro-N-[4-Methoxy-3-(1-methylpiperidin-4-ylamino)phenyl] benzenesulfonamide], in series [1], the “% Inhibition at 10 nM” value was 20.71%, the “% Inhibition at 100 nM” value is 90.83% and the “% Inhibition at 1000 nM” value came to 99.64%. Moreover, the “Scopolamine Induced Reversal” value in series [2] is given as “≦3 mg/kg, p.o”. Further, in series [3], the “Exploration time mean ± S.E.M (sec), first value column” value came to 10.02 ± 1.54 s; the “Exploration time mean ± S.E.M (sec), second value column” value came out at 15.27 ± 1.32 s; the Inference result was “Active”. For the same compound, in series [4] (Intravenous), the AUCt is 4314 ± 967 ng·h/mL, the T1/2 stood at 2.18 ± 1.29 h, the time to peak (Tmax) turned out to be 8.4 ± 6 min and the Cmax is 2885 ± 401 ng/mL. For the same compound, in series [4] (Oral), the AUCt turned out to be 1421 ± 106 ng·h/mL, the T1/2 is recorded as 5.35 ± 3.65 h, the Tmax was determined as 130 ± 86.4 min and the Cmax was determined as 372 ± 85 ng/mL. Besides, the Bioavailability in series [4] was found to be 34%. The “Steady State Brain Penetration (Cb/Cp)” value in series [5] is listed as 0.05 ± 0.01.
